According to patent publication US20020019527A1 (priority 2000, published 2002):
Counter-ions that a name gives are not always drawn.

Target: T1, Farnesyltransferase (FTase) (Bos taurus, UniProt P29702+P49355)
T1 construct: precipitation from a beef brain homogenate; from tissue; host or cells: bovine brain
T1 sequence (P49355 whole entry, one chain of several): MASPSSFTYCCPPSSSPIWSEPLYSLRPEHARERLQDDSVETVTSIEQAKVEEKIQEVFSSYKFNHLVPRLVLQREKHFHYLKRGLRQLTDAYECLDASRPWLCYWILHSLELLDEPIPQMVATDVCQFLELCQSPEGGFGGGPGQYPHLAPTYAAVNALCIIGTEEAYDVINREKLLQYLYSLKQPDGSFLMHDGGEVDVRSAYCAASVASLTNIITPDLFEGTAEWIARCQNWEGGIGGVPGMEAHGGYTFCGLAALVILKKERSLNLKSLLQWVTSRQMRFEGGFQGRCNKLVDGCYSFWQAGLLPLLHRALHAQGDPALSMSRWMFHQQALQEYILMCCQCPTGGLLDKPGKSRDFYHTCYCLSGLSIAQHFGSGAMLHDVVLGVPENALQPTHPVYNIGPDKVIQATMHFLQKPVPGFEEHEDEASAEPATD
Assay: Farnesyltransferase inhibition (scintillation proximity assay, [3H]-FPP / biotin-K-ras peptide)
Format: biochemical, bovine
Conditions: compound at 10^−6 M; bovine FTase, 37° C., 30 minutes
Outline: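 Read-out: [3H]-FPP prenylation of a biotinylated K-ras peptide by SPA, measured 1 h after quenching. Enzyme: FTase purified from bovine brain (ammonium sulfate cut, DEAE Sepharose), free of GGTase I and II. Test compounds in ethanol, diluted 10-fold into the reaction.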
Molecule `Cn1cncc1C(OCc1ccc(Cl)c(Cl)c1)c1ccc(C#N)c(-c2ccccc2C(F)(F)F)c1` (stereo not drawn) [Example 248, 5-(((3,4-dichlorobenzyl)oxy)(1-methyl-1H-imidazol-5-yl)methyl)-2′-(trifluoromethyl)(1,1′-biphenyl)-2-carbonitrile hydrochloride] has an inhibition at 1 µM of 98%. Molecule `Cn1cncc1C(OCc1ccc(C(F)(F)F)c(F)c1)c1ccc(C#N)c(-c2ccccc2C(F)(F)F)c1` (stereo not drawn) [Example 249, 5-(((3-fluoro-4-(trifluoromethyl)benzyl)oxy)(1-methyl-1H-imidazol-5-yl)methyl)-2′-(trifluoromethyl)(1,1′-biphenyl)-2-carbonitrile hydrochloride] has an inhibition at 1 µM of 98%. For `Cn1cncc1C(OCc1ccc(F)c(C(F)(F)F)c1)c1ccc(C#N)c(-c2ccccc2C(F)(F)F)c1` (stereo not drawn) [Example 250, 5-(((4-fluoro-3-(trifluoromethyl)benzyl)oxy)(1-methyl-1H-imidazol-5-yl)methyl)-2′-(trifluoromethyl)(1,1′-biphenyl)-2-carbonitrile hydrochloride], the inhibition at 1 µM was 99%. Molecule `Cn1cncc1C(OCc1ccc(C#N)cn1)c1ccc(C#N)c(-c2ccccc2C(F)(F)F)c1` (stereo not drawn) [Example 251, 6-(((6-cyano-2′-(trifluoromethyl)(1,1′-biphenyl)-3-yl)(1-methyl-1H-imidazol-5-yl)methoxy)methyl)nicotinonitrile dihydrochloride] has an inhibition at 1 µM of 99%. Work on `Cn1cncc1C(OCc1ccc(C#N)c(-c2cccc3ccccc23)c1)c1ccccc1` (stereo not drawn) [Example 256, 4-(((1-methyl-1H-imidazol-5-yl)(phenyl)methoxy)methyl)-2-(1-naphthyl)benzonitrile hydrochloride] yielded an inhibition at 1 µM of 94%. Molecule `Cn1cncc1C(CCc1ccccc1)NCc1ccc(C#N)c(-c2cccc3ccccc23)c1` (stereo not drawn) [Example 260, 4(((1-(1-methyl-1H-imidazol-5-yl)-3-phenylpropyl)amino)methyl)-2-(1-naphthyl)benzonitrile dihydrochloride] has an inhibition at 1 µM of 90%. For `Cn1cncc1C(OCc1cccc(C#N)c1)c1ccc(C#N)c(-c2cccc3ccccc23)c1` (stereo not drawn) [Example 262, 4-(((3-cyanobenzyl)oxy)(1-methyl-1H-imidazol-5-yl)methyl)-2-(1-naphthyl)benzonitrile], the inhibition at 1 µM was 100%. In the case of `Cn1cncc1C(OCc1ccc(Br)cc1)c1ccc(C#N)c(-c2cccc3ccccc23)c1` (stereo not drawn) [Example 263, 4-(((4-bromobenzyl)oxy)(1-methyl-1H-imidazol-5-yl)methyl)-2-(1-naphthyl)benzonitrile], the inhibition at 1 µM is reported as 100%. For `Cn1cncc1CN(Cc1cccc(Cl)c1)c1ccc(C#N)c(-c2cccc3ccccc23)c1` [Example 264, 4-((3-chlorobenzyl)((1-methyl-1H-imidazol-5-yl)methyl)amino)-2-(1-naphthyl)benzonitrile], the inhibition at 1 µM was 100%. `N#Cc1ccc(N(Cc2ccccc2)Cc2cnc[nH]2)cc1-c1cccc2ccccc12` [Example 265, 4-(benzyl(1H-imidazol-5-ylmethyl)amino)-2-(1-naphthyl)benzonitrile] showed an inhibition at 1 µM of 100%. For `Cn1cncc1CN(Cc1cccc(C#N)c1)c1ccc(C#N)c(-c2cccc3ccccc23)c1` [Example 266, 4-((3-cyanobenzyl)((1-methyl-1H-imidazol-5-yl)methyl)amino)-2-(1-naphthyl)benzonitrile], the inhibition at 1 µM was 100%. With `Cn1cncc1CN(c1ccc(C#N)c(-c2cccc3ccccc23)c1)S(=O)(=O)c1ccccc1` [Example 267, N-(4-cyano-3-(1-naphthyl)phenyl)-N-((1-methyl-1H-imidazol-5-yl)methyl)benzenesulfonamide] the inhibition at 1 µM was 100%. For `COC(=O)c1ccc(CN(Cc2cncn2C)c2ccc(C#N)c(-c3cccc4ccccc34)c2)cc1` [Example 268, methyl 4-((4-cyano((1-methyl-1H-imidazol-5-yl)methyl)-3-(1-naphthyl)anilino)methyl)benzoate], the “% Inhibition at 10^−6M” value was 100%. For `Cn1cncc1CN(Cc1ccc(C(=O)O)cc1)c1ccc(C#N)c(-c2cccc3ccccc23)c1` [Example 269, 4-((4-cyano((1-methyl-1H-imidazol-5-yl)methyl)-3-(1-naphthyl)anilino)methyl)benzoic acid], the “% Inhibition at 10^−6M” value was 100%. With `Cc1ccccc1-c1cc(N(Cc2ccccc2)Cc2cnc[nH]2)ccc1C#N` [Example 270, 5-(benzyl(1H-imidazol-5-ylmethyl)amino)-2′-methyl(1,1′-biphenyl)-2-carbonitrile] the inhibition at 1 µM was 100%. With `COC(=O)c1cccc(CN(Cc2cncn2C)c2ccc(C#N)c(-c3cccc4ccccc34)c2)c1` [Example 271, methyl 3-((4-cyano((1-methyl-1H-imidazol-5-yl)methyl)-3-(1-naphthyl)anilino)methyl)benzoate] the “% Inhibition at 10^−6M” value was 100%. Molecule `Cn1cncc1C(OCc1cccc(Cl)c1)c1ccc(C#N)c(-c2cccc3ccccc23)c1` (stereo not drawn) [Example 273, 4-((1-methyl-1H-imidazol-5-yl)((3-chlorobenzyl)oxy)methyl)-2-(1-naphthyl)benzonitrile hydrochloride] has an inhibition at 1 µM of 100%. For `Cl.Cl.Cn1cncc1C(OCc1ccc(C#N)nc1)c1ccc(C#N)c(-c2cccc3ccccc23)c1` (stereo not drawn) [Example 274, 5-(((4-cyano-3-(1-naphthyl)phenyl)(1-methyl-1H-imidazol-5-yl)methoxy)methyl)-2-pyridinecarbonitrile dihydrochlolide], the “% Inhibition at 10^−6M” value was 100%. `Cn1cncc1C(OCc1ccc(C#N)cc1)c1cnc(C#N)c(-c2cccc3ccccc23)c1` (stereo not drawn) [Example 275, 5-(((4-cyanobenzyl)oxy)(1-methyl-1H-imidazol-5-yl)methyl)-3-(1-naphthyl)-2-pyridinecarbonitrile dihydrochloride] gave an inhibition at 1 µM of 100%. In the case of `Cn1cncc1C(OCc1ccc(N=[N+]=[N-])cc1)c1ccc(C#N)c(-c2cccc3ccccc23)c1` (stereo not drawn) [Example 276, 4-((1-methyl-1H-imidazol-5-yl)((4-azidobenzyl)oxy)methyl)-2-(1-naphthyl)benzonitrile hydrochloride], the inhibition at 1 µM is reported as 100%. For `COC(=O)c1ccc(COC(c2ccc(C#N)c(-c3ccccc3C(F)(F)F)c2)c2cncn2C)nc1` (stereo not drawn) [Example 277, methyl 6-(((6-cyano-2′-(trifluoromethyl)(1,1′-biphenyl)-3-yl)(1-methyl-1H-imidazol-5-yl)methoxy)methyl)nicotinate dihydrochloride], the inhibition at 1 µM was 95%. `Cc1cccc(-c2cc(C(OCc3ccc(C#N)cc3)c3cncn3C)ccc2C#N)c1C` (stereo not drawn) [Example 278, 5-(((4-cyanobenzyl)oxy)(1-methyl-1H-imidazol-5-yl)methyl)-2′,3′-dimethyl(1,1′-biphenyl)-2-carbonitrile hydrochloride] gave an inhibition at 1 µM of 99%. Work on `Cn1cncc1C(OCc1ccc(C#N)cc1)c1ccc(C#N)c(-c2cccc(Cl)c2Cl)c1` (stereo not drawn) [Example 279, 2′,3′-dichloro-5-(((4-cyanobenzyl)oxy)(1-methyl-1H-imidazol-5-yl)methyl)(1,1′-biphenyl)-2-carbonitrile hydrochloride] yielded an inhibition at 1 µM of 99%. `Cn1cncc1C(OCc1ccc(C#N)cn1)c1ccc(C#N)c(-c2cccc(Cl)c2Cl)c1` (stereo not drawn) [Example 280, 6-(((2′,3′-dichloro-6-cyano(1,1′-biphenyl)-3-yl)(1-methyl-1H-imidazol-5-yl)methoxy)methyl)nicotinonitrile dihydrochloride] showed an inhibition at 1 µM of 98%. Work on `Cc1cccc(-c2cc(C(OCc3ccc(C#N)cn3)c3cncn3C)ccc2C#N)c1C` (stereo not drawn) [Example 281, 6-(((6-cyano-2′,3′-dimethyl(1,1′-biphenyl)-3-yl)(1-methyl-1H-imidazol-5-yl)methoxy)methyl)nicotinonitrile dihydrochloride] yielded an inhibition at 1 µM of 98%. In the case of `N#Cc1ccc(COC(c2ccsc2)c2ccc(C#N)c(-c3cccc4ccccc34)c2)nc1` (stereo not drawn) [Example 289, 6-(((4-cyano-3-(1-naphthyl)phenyl)(3-thienyl)methoxy)methyl)nicotinonitrile], the inhibition at 1 µM is reported as 75%.

Test system: not listed separately
Assay: Cardiovascular liability test
Conditions: not given
Description: Representative compounds of the instant invention were also tested for cardiovascular liability (see Journal of Cardiovascular Pharmacology, 607-618: 37 (2001)).
With `N#Cc1ccc(COC(c2ccc(C#N)c(-c3cccc4ccccc34)c2)c2cncs2)nc1` (stereo not drawn) [Example 291, 6-(((4-cyano-3-(1-naphthyl)phenyl)(1,3-thiazol-5-yl)methoxy)methyl)nicotinonitrile] the “electrophysiological profile (cardiovascular liability)” value was “improved electrophysiological profile”.
